Experimental data taken from a melting point compilation (Tetko et al.; mined from patent text by program, amines drawn as free bases though some values may be those of a salt).

Compound | melting point
CCC(C)(N=NC(C)(CC)NC(=O)NC1CCCCC1)NC(=O)NC1CCCCC1 (stereo not given) | 110 to 113 °C
CN1Cc2c(C(=O)OC(C)(C)C)ncn2-c2cccc(Br)c2C1=O | 207 to 208 °C
COC(CN1C(=O)CN=C(c2ccccc2)c2cc(Cl)ccc21)OC | 117 to 119 °C
COc1ccc(C(O)c2ccccc2)cc1OC1CCCC1 (stereo not given) | 82.5 to 83 °C
COc1cc(C(O)CN2CCN(C(c3ccccc3)c3ccccc3)CC2)cc(OC)c1OC (stereo not given) | 173 °C
CCCCCCCCCCCCc1csc(-c2c(Cl)c(Cl)c(-c3cc(CCCCCCCCCCCC)cs3)c3nsnc23)c1 | 79 to 80 °C
FC(F)(F)c1cc(C(F)(F)F)n(-c2ccc(Nc3noc4ccccc34)cc2)n1 | 209 to 210 °C
[N-]=[N+]=C1CCc2ccccc2C1=O | 50 to 52 °C
COc1cccc(CNc2ncnc3c2sc2nc(N(C)C)c4c(c23)CC(C)(C)OC4)c1OC | 89.9 to 90.7 °C
COc1cc(N=C=S)nc(OC)c1 | 85 to 86 °C
N#CC1(c2ccc(F)cc2)CCC(N2CCN(c3cccnn3)CC2)CC1 (stereo not given) | 189 °C
CN1CCN(c2cc(Cl)cc3c2c(=O)n(Cc2ccccc2)c(=O)n3Cc2ccccc2)CC1 | 113 to 116 °C
COCCc1nc2c(N)nc3cc(OCc4cccc(C#N)c4)ccc3c2n1CC(C)(C)O | 196 to 197 °C
Cc1noc(-c2ccc(=O)n3c2-c2sc(-c4ccccc4)cc2SCC3)n1 | 183 to 185 °C
Cc1ccc(C=NNc2nsc3ccccc23)cc1 | 294 °C
CN(C)S(=O)(=O)c1ccc2c(c1)S(=O)(=O)NC(C(F)(F)F)=N2 | 240 to 242 °C
CC(C)(C)c1ccc(C(=O)Nc2cc(OCCCO/N=C/c3cn(Cc4ccccc4)c4ccccc34)ccc2C(=O)O)cc1 | 181 to 182 °C
O=C(O)c1ccc(-c2ccc(C(=O)O)cc2-c2nc3ccccc3[nH]2)c(-c2nc3ccccc3[nH]2)c1 | > 400 °C
CN1Cc2c(C#C[Si](C)(C)C)ncn2-c2ccc(F)cc2C1=O | 184 to 185 °C
Cc1cc(-c2nc(C(F)(F)F)cn2-c2ccc(S(C)(=O)=O)c(F)c2)ccc1-c1cscn1 | 197 to 198 °C
Cc1ccc(CN2CC=C(/C=C/c3ccc(Cl)cc3)CC2)cc1 | 113 to 115 °C
c1ccc2c(c1)NC(CN1CCOCC1)CO2 (stereo not given) | 117 to 121 °C
CCOc1ccc2cc(-c3nc(-c4ccccc4)no3)c(=O)oc2c1 | 229 °C
CCCOC(=O)c1cncn1C(c1ccccc1)c1ccccc1 | 81 °C
CCCOc1cc(OCCC)c2c(C)c(CCCl)c(=O)oc2c1 | 99 to 101 °C
CN1CCN(c2ccc3c(c2)NC(=O)C(C)(c2ccc([N+](=O)[O-])cc2)C3=O)CC1 (stereo not given) | 150 to 151 °C
CCN1CCCC(c2ccc(OC)c(OC)c2)C1 (stereo not given) | 50 °C
Brc1ccc2nc(-c3ccc4ccccc4c3)cn2c1 | 226 to 228 °C
COc1ccc(-c2c3c(c(C)c4ccc(OC)cc24)C(=O)NC3=O)cc1 | 282 to 284 °C
CC(C)(C)OC(=O)N[C@@H]1C(=O)N2C(C(=O)OC(C)(C)C)=C(C=O)CC[C@H]12 | 194 to 195 °C

Results, then the compound that gave them:

melting point | Compound
261 °C | CC(=O)Nc1ccc2nc(-c3ccccc3)cc(OCC(=O)N3CCOCC3)c2c1
198 to 200 °C | CCCCNC(=O)c1cccc(S(=O)(=O)NC(=O)c2ccc(C(=O)NCC(=O)OC)nc2)c1
146 to 147 °C | CC(=O)OC1CSC(Oc2cccc(-c3cccnc3Cl)c2)C(OC(C)=O)C1OC(C)=O (stereo not given)
235 to 250 °C | O=C(O)c1sc(-c2ccc(Cl)cc2)nc1C(F)(F)F
75 to 81 °C | CC(=O)Oc1ccc(C(F)(F)C(F)(F)C(F)(F)I)cc1
194 to 195 °C | NCc1ccsc1CC(=O)O
243 to 245 °C | O=C(NNC(=O)c1occ(-c2ccccc2)c1-c1ccccc1)c1ccc(O)c(F)c1
228 °C | COc1ccc(CNC(=O)CCC(=O)c2ccc3[nH]c4ncc(Cl)cc4c3c2)cc1
157 °C | O=C(c1ccc(F)cc1)C1CCN(CCCn2c(=O)[nH]c3ccc(Cl)cc32)CC1
156 to 158 °C | CCCS(=O)(=O)N(c1cc(Cl)ccc1C(=O)OC)S(=O)(=O)CCC
253 to 255 °C | COCCOc1cc(Cc2cnc(N)nc2N)cc2cccnc12
170 to 171 °C | Cc1sc(C)c(Cc2nc3c(F)c(F)cc(F)c3s2)c1CC(=O)O
175 to 178 °C | Oc1cccc(-c2noc3ncccc23)c1
205 to 207 °C | O=C(O)C1=C(S(=O)(=O)c2ccccc2)CC2CC(=O)C12 (stereo not given)
224 to 226 °C | COc1ccc(NC(=O)C23CC4CC(CC(C4)C2)C3)cc1OC
108 to 110 °C | CCOC(=O)Nc1cccc(C(=O)CBr)c1
133 to 135 °C | Cc1oc(-c2ccccc2)nc1CN(C)Cc1ccc(C[C@@H](C(=O)O)n2cccc2)cc1
204 to 207 °C | CN(C)C(=O)Cn1c(-c2ccc([N+](=O)[O-])cc2)nc2cccnc21
248 to 249 °C | Nc1cc(C(=O)O)cc(OCc2ccc(Cl)cc2)c1C(=O)c1ccccc1
250 to 251 °C | CCOC(=O)c1cc(Br)cc2c(=O)cc(-c3cccc(OCc4nc5ccccc5s4)c3)oc12

melting point | Compound
112 to 113 °C | CCOC1CCC(=O)N1S(=O)(=O)c1ccc(OC)cc1 (stereo not given)
108 to 110 °C | CC#CCOc1ccc(S(=O)(=O)NC2(C(=O)O)CCCC2)cc1
246 to 248 °C | CS(=O)(=O)Cc1cccc(CNC(=O)c2nc3scc(COCc4ccc(C(=O)O)cc4)c3c(=O)[nH]2)c1
111 to 112 °C | COc1ccc(C(O)CCSc2ccc(S(N)(=O)=O)s2)cc1 (stereo not given)
154 to 156 °C | CCOC(=O)c1nn(-c2ccccc2)c2c1COc1ccccc1-2
221 to 222 °C | CCn1c(=O)c2c(nc(/C=C/c3cccc(C(C)=O)c3)n2C)n(CC)c1=O
190 to 192 °C | CCOc1ccccc1[C@H]1O[C@H](CC(=O)O)C(=O)N(CC(C)C)c2ccc(Cl)cc21 (relative stereo)
79 to 80 °C | CCC(=O)OCc1c2ccccc2cc2ccccc12
252 to 253 °C | COCCNc1nc(-n2ccnc2)nc2ccc(C(=O)OC)cc12
164 to 165 °C | CCOC(=O)C(=CNc1ccc(F)c(N2CCN(C(C)=O)CC2)n1)C(=O)OCC
118 to 119 °C | CCOCc1cc2cc(Br)ccc2oc1=O
92 to 93 °C | CCOC(=O)c1c(C(C)C)nn(-c2ccccc2)c1-c1ccc(F)cc1
142 to 143 °C | N#Cc1cnc(Nc2ccc(CCO)cc2)nc1-c1ccccc1
202 to 203 °C | Cc1cc2c(cc1Cl)N(C(=O)Nc1ccc(C)c(-c3cccnc3)c1)CC2
175 to 176 °C | COc1cccc(C=CC(=O)C2C(=O)OC(=O)C(C(C)=O)=C2O)c1OC (stereo not given)
241 °C | CN1CCN(c2ccc(C(=O)N[C@H]3CC[C@H](CCN4CCC(c5cccc6c5CCO6)CC4)CC3)cc2)CC1
247 to 249 °C | COc1ccc(C=C2Oc3ccc(C(=O)O)cc3C2=O)c(OC)c1OC
161 to 163 °C | CCNC(=O)c1ccc(C=C(C)c2ccc3c(c2)C(C)(C)CCO3)cc1
100 to 104 °C | CCCOc1c(OC)cc([N+](=O)[O-])c2ncccc12
119 °C | COC(=O)Cc1cc(C(=O)c2ccccc2Cl)ccc1O
